These results are taken from US7138246B2, “Methods for identifying or screening for agents that modulate 17β-HSD3” (Bristol-Myers Squibb Company, priority 2004, dated 2006).

The target in test [1] is T1, 17β-HSD3 (Homo sapiens, UniProt P37058).
T1 sequence (P37058 1-310): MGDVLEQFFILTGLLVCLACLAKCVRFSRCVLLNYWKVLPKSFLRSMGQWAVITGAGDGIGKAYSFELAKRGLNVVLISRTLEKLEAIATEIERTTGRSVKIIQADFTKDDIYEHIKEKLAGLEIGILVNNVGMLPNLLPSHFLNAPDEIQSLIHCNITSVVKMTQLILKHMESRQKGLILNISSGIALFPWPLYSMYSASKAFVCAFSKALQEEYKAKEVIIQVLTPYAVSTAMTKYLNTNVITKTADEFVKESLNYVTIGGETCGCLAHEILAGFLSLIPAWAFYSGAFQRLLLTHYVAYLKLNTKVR
Description: 17β-HSD3 scintillation proximity assay (SPA). The test is classed as biochemical. On the set-up: made in house; CHAPS-solubilised 100,000 x g supernatant. The following applies: for 17β-HSD3 inhibitory activity in the SPA: FIG. 3B. Here is the method: HEK293/17β-HSD3 cells were harvested by scraping or treatment with Cell Dissociation Buffer (Invitrogen) and collected in ice cold Phosphate Buffered Saline (PBS) containing a protease inhibitor cocktail (Complete Tabs, Roche Diagnostics). The cells were then pelleted by centrifugation at 1000 rpm and washed once more in the same buffer. The cells were then resuspended in 2× the cell pellet volume with ice cold lysis buffer (40 mM Tris-HCl pH7.5, 2 mM DTT, 1 mM EDTA, 10% Glycerol (v/v), 0.5% CHAPS (w/v), 1M 1-(3-sulfopropyl)pyridinium hydroxide, Complete Tab(s)) and dounce homogenized on ice. The crude lysate was then incubated on ice for 60 minutes to allow for membrane protein solubilization, followed by centrifugation at 100,000×g for 60 minutes at 4° C. The supernatant was then removed and dialyzed overnight at 4° C. against the enzyme storage buffer (40 mM Tris-HCl pH 7.5, 40 mM KCl, 2 mM DTT, 1 mM EDTA, 20% Glycerol (v/v), Complete Tab(s)). Protein concentration was determined by the Bradford assay, the enzyme was aliquotted, and stored at −80° C. Activity was assessed using the SPA described below.
SPA beads conjugated to anti-mouse IgG were incubated overnight in SPA Bead Buffer (50 mM Tris pH 8.0, 10% Glycerol (v/v)), with anti-Testosterone monoclonal antibody (2 μg antibody per 1 mg of SPA beads) under gentle rotation. The antibody saturated bead complex was then spun down at 500 rpm for 10 minutes at 4° C. and the beads were resuspended in SPA Bead Buffer at a final concentration of 0.5 mg/160 μL. The anti-T/SPA Beads were then stored at 4° C. until needed. Enzymatic assays were conducted in 30 μL total reaction volumes in 96-well white Optiplates (Perkin Elmer). The reaction buffer consisted of 50 mM MES pH 6.0, 2 mM DTT, 0.1% CHAPS, 3 mM NADPH, 10% Glycerol (v/v), 850 nM 4-Androstene-3,17-Dione, and 50 nM [3H]4-Androstene-3,17-Dione (Specific Activity 70–110Ci/mmol). Compounds were diluted such that the final concentration of ethanol and DMSO would not exceed 3% (v/v) and 1% (v/v) respectively, corresponding to concentrations that had little or no effect on enzymatic activity (data not shown). Previously prepared and frozen 17β-HSD3 enzyme was diluted into ice cold buffer containing 50 mM Mes, 40 mM KCl, 2 mM DTT, 1 mM EDTA, and 10% glycerol (v/v) and added last to the reaction mixture. The reaction was allowed to proceed for 60 minutes at room temperature and was stopped by the addition of 10 μL of 0.1N HCl. After the reactions were stopped, an excess of the anti-T/SPA Beads (0.5 mg) were added to each well to a final volume of 200 μL. The plates were sealed and shaken at ˜200 rpm on an orbital shaker at room temp for at least 90 minutes or overnight at 4° C. After allowing the beads to settle, the amount of [3H]Testosterone produced in each well was determined by scintillation counting on a Perkin Elmer TopCount instrument and collected as DPMs. The data was then analyzed and percent inhibition and/or IC50 values, based on 10 point serially diluted curves in duplicate or triplicate, were calculated using Microsoft Excel and XLFit programs. […] Input samples and unbound supernatants, from the enzymatic reactions, were quantitated by scintillation counting to aid in the calculation of bound versus free testosterone produced. Km values were calculated using the Lineweaver-Burke formula and plots where 1/v=(Km+[s])/(Vmax [s]). […]

Test [2] deals with T1, 17β-HSD3. Kind of test: 17β-HSD3 SEAP assay (PSA reporter) in MDA MB 453/17β-HSD3 cells. The test is classed as cell-based. On the set-up: expressed in transfected cells. The following applies: MDA-MB453-17β-HSD3 cells, PSA-SEAP reporter, read-out: IC50, 17β-HSD3 cell based activity. Here is the method: Cultured MDA MB 453/17β-HSD3 cells were trypsinized, spun at 1000 rpm for 10 minutes, and resuspended in DMEM/10% cFBS supplemented with 5 mM BES at a concentration of 4×10^7 cells per mL. The cells (aliquots of 1×10^7 cells) were then transiently transfected with 3 μg of the PSA-SEAP construct by electroporation at 0.22 kVolts and 960 μFD with a time constant of […]. After a short recovery period, the cells were spun down and resuspended in DMEM/10% cFBS and plated into 96-well tissue culture plates (5×10^5 cells per well in 50 μL). After overnight adherence, the compounds were diluted in DMEM/10% and cFBS was added to the cells. 24 hours later, the medium was removed, fresh media containing the compounds was added in the presence of 10 nM Androstenedione, and this mixture was allowed to incubate for 24 hours. 25 μL of the culture supernatant was then removed and plated into 96-well black Optiplates (Perkin Elmer) for SEAP measurement as described by the reagent manufacturer (Tropix). Briefly, the supernatant was heat inactivated at 65° C. for 30 minutes and then allowed to cool to room temperature. Assay buffer (25 μL, Tropix) was then added and allowed to mix for 5 minutes followed by the addition of the Reaction buffer (25 μL, Tropix) and the plates were then incubated for 20 minutes in the dark. Plates were then read using a Packard Instruments TopCount with luminescent detection and signal was captured for 10 seconds per well and photon emission (cps) was averaged. A standard MTS assay (Promega) as described by the manufacturer, was performed in parallel to normalize the data based on cell numbers. Data analysis including percent inhibition and IC50 determination, based on 10 point serially diluted curves in duplicate, was then performed using Microsoft Excel and XLFit.
The analysis of 17β-HSD3 steroid conversion by TLC is hampered by the limitation to examine large numbers of compounds. […] To test this system, a prostate specific antigen (PSA) reporter plasmid was transfected into MDA-MB453 cells stably expressing 17β-HSD3 and stimulated with different concentrations of androstenedione (FIG. 5B).
To evaluate the suitability of this cellular assay for monitoring 17β-HSD3 cell based activity, the inhibitory effects of 18β-glycyrrhetinic acid and […] were examined.

Structures are written as SMILES.

Turning to `C[C@]12C=CC(=O)C=C1C(=O)C[C@@H]1[C@@H]2CC[C@]2(C)C(=O)CC[C@@H]12` [1,4-androstadiene-1,6,17-trione], on 17β-HSD3 [1], the “17β-HSD3 inhibitory activity in the SPA” value is recorded as “potent inhibitory activity”. Besides, on 17β-HSD3 [2] (FIG. 5C), the IC50 stood at 1600 nM.
Consider `COc1ccccc1CCNC(=O)c1cc(Oc2ccccc2)ccc1NC(=O)c1ccc(O)c(Cl)c1` [2-[(3-chloro-4-hydroxybenzoyl)amino]-N-[2-(2-methoxyphenyl)ethyl]-5-phenoxybenzamide], for which the IC50 turned out to be 60 nM at 17β-HSD3 [1] (read-out: IC50, 17β-HSD3 biochemical activity) and 300 nM at 17β-HSD3 [2].
Take `CC1(C)[C@@H](O)CC[C@]2(C)[C@H]3C(=O)C=C4[C@@H]5C[C@@](C)(C(=O)O)CC[C@]5(C)CC[C@@]4(C)[C@]3(C)CC[C@@H]12` [18β-glycyrrhetinic acid]: the “17β-HSD3 inhibitory activity in the SPA” value at 17β-HSD3 [1] is recorded as “potent inhibitory activity”. In addition, the IC50 at 17β-HSD3 [2] (FIG. 5C) turned out to be 3800 nM.
